Read-outs that look alike come from different tables or passages of the source.
Tests used:
[1] = test system: green peach aphid (Myzus persicae); experiment: Myzus test (spray treatment); assay type: in vivo; settings: foliar, 144 h, application rate of 500 g/ha, after 6 days, Chinese cabbage leaf discs, 100% = all aphids killed, read-out: effect in %
Procedure: Myzus Test (Spray Treatment)
• Solvents: 78 parts by weight of acetone • 1.5 parts by weight of dimethylformamide • Emulsifier: 0.5 part by weight of alkylaryl polyglycol ether
(§1) To produce a suitable preparation of active compound, 1 part by weight of active compound is mixed with the stated amounts of solvent and emulsifier, and the concentrate is diluted with emulsifier-containing water to the desired concentration. Discs of Chinese cabbage (Brassica pekinensis) infected by all stages of the green peach aphid (Myzus persicae) are sprayed with an active compound preparation of the desired concentration.
After 6 days, the effect in % is determined. 100% means that all of the aphids have been killed; 0% means that none of the aphids have been killed.

[2] = test system: greenhouse red spider mite (Tetranychus urticae); experiment: Tetranychus test (OP-resistant/spray treatment); assay type: in vivo; settings: application rate of 500 g/ha; after 6 days; bean leaf discs; 100% = all spider mites killed
Procedure: Tetranychus Test (OP-Resistant/Spray Treatment)
• Solvents: 78.0 parts by weight of acetone • 1.5 parts by weight of dimethylformamide • Emulsifier: 0.5 part by weight of alkylaryl polyglycol ether
as §1, with “bean leaves (Phaseolus vulgaris) which are infested” for “Chinese cabbage (Brassica pekinensis) infected”, “greenhouse red spider mite (Tetranychus urticae)” for “green peach aphid (Myzus persicae)”
After 6 days, the effect in % is determined. 100% means that all of the spider mites have been killed; 0% means that none of the spider mites have been killed.

[3] = log P, HPLC-MS, eluent not stated
[4] = HCOOH (formic acid), log P (HCOOH), HPLC-MS, HCOOH
[5] = HCOOH (formic acid), logP, HCOOH, Table 1

Row | chromatographic logP (log P by HPLC-MS; [3]) | chromatographic logP (log P by HPLC-MS; [5]) | SMILES | pest or weed control at 500 g/ha [1] | further results
1 | 0.91 |  | CN(C)C=CC(=O)c1cncc(F)c1 (mixture of isomers) [(E/Z)-3-(Dimethylamino)-1-(5-fluoro-3-pyridinyl)-2-propen-1-one] |  | 
2 | 1.05 |  | C#Cc1cccc(-c2ncccn2)n1 [2-(6-ethynylpyridin-2-yl)pyrimidine, 2-(6-Ethynylpyridin-2-yl)pyrimidine] |  | 
3 |  |  | Cn1nc(-c2cccc(Br)n2)cc1-c1cccnc1 [2-Bromo-6-[1-methyl-5-(pyridin-3-yl)-1H-pyrazol-3-yl]pyridine] |  | chromatographic logP (log P by HPLC-MS; HCOOH (formic acid)): 1.94
4 | 1.43 |  | c1cnc(-c2cccc(-c3nccs3)n2)nc1 [2-[6-(1,3-Thiazol-2-yl)pyridin-2-yl]pyrimidine] |  | 
5 |  |  | C[Si](C)(C)C#Cc1cccc(-c2ncccn2)n1 [2-{6-[(Trimethylsilyl)ethynyl]pyridin-2-yl}pyrimidine] |  | chromatographic logP (log P by HPLC-MS): 3.11
6 | 0.92 |  | Fc1cncc(-c2cc[nH]n2)c1 [3-(5-fluoro-3-pyridinyl)-1H-pyrazole, 3-(5-Fluoro-3-pyridinyl)-1H-pyrazole] |  | 
7 | 2.25 |  | CC1(C)OB(c2coc(-c3cccnc3)c2)OC1(C)C [3-[4-(4,4,5,5-Tetramethyl-1,3,2-dioxaborolan-2-yl)-2-furyl]pyridine] |  | 
8 | 0.32 |  | CCc1nn(-c2cccnc2)c(=O)n1N [4-Amino-5-ethyl-2-(pyridin-3-yl)-2,4-dihydro-3H-1,2,4-triazol-3-one] |  | 
9 | 0.85 |  | CC(C)c1nn(-c2cccnc2)c(=O)n1N [4-Amino-5-isopropyl-2-(pyridin-3-yl)-2,4-dihydro-3H-1,2,4-triazol-3-one] |  | 
10 | 0.3 |  | CCc1nn(-c2cccnc2)c(=O)[nH]1 [5-Ethyl-2-(pyridin-3-yl)-2,4-dihydro-3H-1,2,4-triazol-3-one] |  | 
11 | 0.71 |  | CC(C)c1nn(-c2cccnc2)c(=O)[nH]1 [5-Isopropyl-2-(pyridin-3-yl)-2,4-dihydro-3H-1,2,4-triazol-3-one] |  | 
12 | -0.21 |  | Cc1nn(-c2cccnc2)c(=O)[nH]1 [5-Methyl-2-(pyridin-3-yl)-2,4-dihydro-3H-1,2,4-triazol-3-one] |  | 
13 | 1.81 |  | O=C(O)c1cccc(-n2ccc(-c3cncc(F)c3)n2)n1 [6-[3-(5-Fluoro-3-pyridinyl)-1H-pyrazol-1-yl]-2-pyridinecarboxylate] |  | 
14 |  | 2.23 | Brc1cccc(-c2cc(-c3cccnc3)no2)n1 [Compound 1, 2-Bromo-6-[3-(pyridin-3-yl)-1,2-oxazol-5-yl]pyridine] | 100% | chromatographic logP (log P by HPLC-MS; [4]): 2.23
15 |  | 1.26 | Cn1nc(-c2cccc(-c3ncccn3)n2)cc1-c1cccnc1 [Compound 2, 2-{6-[1-Methyl-5-(pyridin-3-yl)-1H-pyrazol-3-yl]pyridin-2-yl}pyrimidine] | 100% | chromatographic logP (log P by HPLC-MS; [4]): 1.26
16 |  | 0.73 | c1cnc(-c2cccc(-n3cnc(-c4cccnc4)c3)n2)nc1 [Compound 3, 2-{6-[4-(Pyridin-3-yl)-1H-imidazol-1-yl]pyridin-2-yl}pyrimidine] | 100% | chromatographic logP (log P by HPLC-MS; [4]): 0.75
17 | 2.11 | 2.11 | FC(F)(F)c1cccc(-n2cnc(-c3cccnc3)n2)n1 [Compound 6, 2-[3-(Pyridin-3-yl)-1H-1,2,4-triazol-1-yl]-6-(trifluoromethyl)pyridine] | 100% | 
18 | 1.39 | 1.39 | c1cnc(-c2cccc(-c3cnc(-c4cccnc4)o3)n2)nc1 [Compound 7, 2-{6-[2-(Pyridin-3-yl)-1,3-oxazol-5-yl]pyridin-2-yl}pyrimidine] | 100% | effect in % [2]: 100%
19 | 1.04 | 1.04 | c1cnc(-c2cccc(-n3cc(-c4cccnc4)cn3)n2)nc1 [Compound 9, 2-{6-[4-(Pyridin-3-yl)-1H-pyrazol-1-yl]pyridin-2-yl}pyrimidine] | 100% | 
20 | 1.39 | 1.39 | c1cnc(-c2cccc(-c3cn(-c4cccnc4)nn3)n2)nc1 [Compound 10, 2-{6-[1-(Pyridin-3-yl)-1H-1,2,3-triazol-4-yl]pyridin-2-yl}pyrimidine] | 100% | 
21 | 1.26 | 1.26 | c1cnc(-c2cccc(-c3coc(-c4cccnc4)c3)n2)nc1 [Compound 11, 2-{6-[5-(Pyridin-3-yl)-3-furyl]pyridin-2-yl}pyrimidine] |  | 
22 | 1.2 | 1.2 | c1cnc(-c2cccc(-n3ccc(-c4cccnc4)n3)n2)nc1 [Compound 13, 2-{6-[3-(Pyridin-3-yl)-1H-pyrazol-1-yl]pyridin-2-yl}pyrimidine] |  | 
23 | 1.77 | 1.77 | CC(C)c1nn(-c2cccnc2)c(=O)n1-c1cccc(-c2ncccn2)n1 [Compound 14, 5-Isopropyl-2-(pyridin-3-yl)-4-[6-(pyrimidin-2-yl)pyridin-2-yl]-2,4-dihydro-3H-1,2,4-triazol-3-one] |  | 
24 |  | 1.48 | CCc1nn(-c2cccnc2)c(=O)n1-c1cccc(-c2ncccn2)n1 [Compound 15, 5-Ethyl-2-(pyridin-3-yl)-4-[6-(pyrimidin-2-yl)pyridin-2-yl]-2,4-dihydro-3H-1,2,4-triazol-3-one] |  | 
25 |  | 1.17 | Cc1nn(-c2cccnc2)c(=O)n1-c1cccc(-c2ncccn2)n1 [Compound 16, 5-methyl-2-(pyridin-3-yl)-4-[6-(pyrimidin-2-yl)pyridin-2-yl]-2,4-dihydro-3H-1,2,4-triazol-3-one] |  | 
26 | 1.79 | 1.79 | c1cnc(-c2cccc(-c3ncc(-c4cccnc4)s3)n2)nc1 [Compound 17, 2-{6-[5-(Pyridin-3-yl)-1,3-thiazol-2-yl]pyridin-2-yl}pyrimidine] | 100% | 
27 | 2.13 |  | Fc1cncc(-c2cnc(-c3cccc(-c4ncccn4)n3)s2)c1 [Compound 21, 2-{6-[5-(5-Fluoropyridin-3-yl)-1,3-thiazol-2-yl]pyridin-2-yl}pyrimidine] | 90% | chromatographic logP (log P by HPLC-MS; HPLC-MS, logP, HCOOH, Table 2): 2.13
28 |  |  | CN(C)S(=O)(=O)NC(=O)c1cccc(-n2ccc(-c3cncc(F)c3)n2)n1 [Compound 22, 6-[3-(5-Fluoro-3-pyridinyl)-1H-pyrazol-1-yl]-N-[(dimethylamino)sulfonyl]-2-pyridinecarboxamide] |  | chromatographic logP (log P by HPLC-MS; HPLC-MS, log P, eluent not stated): 2.61; chromatographic logP (log P by HPLC-MS; HPLC-MS, logP, HCOOH, Table 2): 2.61
29 | 1.07 |  | COC(=O)c1cccc(-n2ccc(-c3cncc(F)c3)n2)n1 [Methyl 6-[3-(5-fluoro-3-pyridinyl)-1H-pyrazol-1-yl]-2-pyridinecarboxylate] |  | 
